# Measured values published in PMC9688530, “Development of Ic-ELISA and Colloidal Gold Lateral Flow Immunoassay for the Determination of Cypermethrin in Agricultural Samples” (Biosensors, 2022).
# Values joined by “and” are separate entries in the source; they are usually repeats but may differ in a detail not shown here. Identical values can stand only once.
# What was measured:
# [1] = tested on: antibody against CYP; set-up: method as in PMID 26965575; conditions: cited from earlier work
# [2] = tested on: anti-CYP mAb; assay: colloidal gold LFIA strip; format: binding, mouse; set-up: key to T line color intensity: +++: More plus signs (+) mean darker red; ++-: More plus signs (+) mean darker red; +--: More plus signs (+) mean darker red; --- means no color band
# Method: Colloidal gold particles were synthesized with trisodium citrate as a reducing agent according to our previous work. For the preparation of colloidal gold mAb, 6.65 μg/mL anti-CYP mAbs were added to the colloidal gold solution adjusted to pH 8.2 using 0.2 mol/L K2CO3 with shaking at room temperature for 1 h. BSA (1%) was used to block free colloidal gold particles. After 1 h, the mixture was centrifuged at 12,000 revolutions per minute (RPM) for 15 min to remove free anti-CYP mAbs. The centrifuged deposits were resuspended using one-tenth of the original volume of sodium borate solution (0.01 mol/L) containing 2% BSA and 3% sucrose and preserved at 4 °C.
# As depicted in Figure 1A, the LFIA strip was assembled into four components. The center section of a PVC plate was affixed to an NC membrane. The sample pad and absorption pad were stuck on both ends of the PVC plate, and both overlapped with the NC membrane by 1 mm. A total of 2 mg/mL of hapten 5-BSA and 0.5 mg/mL of GAMA were sprayed onto the NC membrane as the test line and control line, respectively, with 5 mm intervals by an automatic dispenser. After drying at 37 °C for 12 h, the fabricated cards were cut into 4 mm wide LFIA strips.
# One hundred microliters of the CYP standard solution and 4 μL of the colloidal gold mAb solution were added into a micropore and mixed. After 5 min, an LFIA strip was inserted into the mixture solution. During the mixed solution migration from the sample pad to the absorbent pad, colloidal gold mAb was captured by the T and C lines, resulting in the appearance of color bands within 10 min. When the T line disappeared or the color intensity of the T line was lower than that of the C line, the result was positive (Figure 1B,C). When the color intensity of the T line was not less than that of the C line, the result was negative (Figure 1D).
# The sensitivity of the LFIA strip was evaluated by a series of CYP standard solutions (0.7, 0.6, 0.5, 0.4, 0.3, 0.2, 0.1, 0 μg/mL). For qualitative analysis, the sensitivity of the LFIA strip was appraised by the visual LOD (vLOD) and the cut-off value. The vLOD is the lowest concentration of CYP at which the lighter color of the T line is observed compared to the C line. The cut-off value is the minimum CYP concentration at which no color band appears on the T line.
# The CRs of the LFIA were calculated with the following equation:CR (%) = (vLOD of CYP/vLOD of analogues) × 100%.
compound,measurement,setting,value
"CC1(C)C(C=C(Cl)Cl)C1C(=O)OC(C#N)c1cccc(Oc2ccccc2)c1 (stereo not drawn) [CYP, Cypermethrin]",IC50,[1],2.59 ng/mL and 2.6 ng/mL
same,T line color intensity,"[2]; 0.3 µg/mL, Acetone 10 v%",+++
same,T line color intensity,"[2]; 0.3 µg/mL, Acetone 20 v%",+++
same,T line color intensity,"[2]; 0.3 µg/mL, Acetone 30 v%",++-
same,T line color intensity,"[2]; 0.3 µg/mL, Acetone 40 v%",+--
same,T line color intensity,"[2]; 0.3 µg/mL, Acetonitrile 10 v%",+++
same,T line color intensity,"[2]; 0.3 µg/mL, Acetonitrile 20 v%",++-
same,T line color intensity,"[2]; 0.3 µg/mL, Acetonitrile 30 v%",+--
same,T line color intensity,"[2]; 0.3 µg/mL, Acetonitrile 40 v%",---
same,T line color intensity,"[2]; 0.3 µg/mL, Dimethyl sulfoxide 10 v%",++-
same,T line color intensity,"[2]; 0.3 µg/mL, Dimethyl sulfoxide 20 v%",+++
same,T line color intensity,"[2]; 0.3 µg/mL, Dimethyl sulfoxide 30 v%",++-
same,T line color intensity,"[2]; 0.3 µg/mL, Dimethyl sulfoxide 40 v%",++-
same,T line color intensity,"[2]; 0.3 µg/mL, Methanol 10 v%",+++
same,T line color intensity,"[2]; 0.3 µg/mL, Methanol 20 v%",+++
same,T line color intensity,"[2]; 0.3 µg/mL, Methanol 30 v%",++-
same,T line color intensity,"[2]; 0.3 µg/mL, Methanol 40 v%",+--
same,T line color intensity,"[2]; 0.3 µg/mL, Na+ 0.07 mol/L",+++
same,T line color intensity,"[2]; 0.3 µg/mL, Na+ 0.14 mol/L",+++
same,T line color intensity,"[2]; 0.3 µg/mL, Na+ 0.25 mol/L",+++
same,T line color intensity,"[2]; 0.3 µg/mL, Na+ 0.5 mol/L",++-
same,T line color intensity,"[2]; 0.3 µg/mL, Na+ 1 mol/L",++-
same,T line color intensity,"[2]; 0.3 µg/mL, Na+ 2 mol/L",+--
same,T line color intensity,"[2]; 0.3 µg/mL, pH 6",+++
same,T line color intensity,"[2]; 0.3 µg/mL, pH 7",+++
same,T line color intensity,"[2]; 0.3 µg/mL, pH 7.4",+++
same,T line color intensity,"[2]; 0.3 µg/mL, pH 8",++-
same,T line color intensity,"[2]; 0.3 µg/mL, pH 9",+--
same,T line color intensity,"[2]; 0.4 µg/mL, Acetone 10 v%",++-
same,T line color intensity,"[2]; 0.4 µg/mL, Acetone 20 v%",+--
same,T line color intensity,"[2]; 0.4 µg/mL, Acetone 30 v%",+--
same,T line color intensity,"[2]; 0.4 µg/mL, Acetone 40 v%",---
same,T line color intensity,"[2]; 0.4 µg/mL, Acetonitrile 10 v%",++-
same,T line color intensity,"[2]; 0.4 µg/mL, Acetonitrile 20 v%",+--
same,T line color intensity,"[2]; 0.4 µg/mL, Acetonitrile 30 v%",+--
same,T line color intensity,"[2]; 0.4 µg/mL, Acetonitrile 40 v%",---
same,T line color intensity,"[2]; 0.4 µg/mL, Dimethyl sulfoxide 10 v%",+--
same,T line color intensity,"[2]; 0.4 µg/mL, Dimethyl sulfoxide 20 v%",+--
same,T line color intensity,"[2]; 0.4 µg/mL, Dimethyl sulfoxide 30 v%",+--
same,T line color intensity,"[2]; 0.4 µg/mL, Dimethyl sulfoxide 40 v%",+--
same,T line color intensity,"[2]; 0.4 µg/mL, Methanol 10 v%",+--
same,T line color intensity,"[2]; 0.4 µg/mL, Methanol 20 v%",+--
same,T line color intensity,"[2]; 0.4 µg/mL, Methanol 30 v%",+--
same,T line color intensity,"[2]; 0.4 µg/mL, Methanol 40 v%",+--
same,T line color intensity,"[2]; 0.4 µg/mL, Na+ 0.07 mol/L",++-
same,T line color intensity,"[2]; 0.4 µg/mL, Na+ 0.14 mol/L",++-
same,T line color intensity,"[2]; 0.4 µg/mL, Na+ 0.25 mol/L",++-
same,T line color intensity,"[2]; 0.4 µg/mL, Na+ 0.5 mol/L",++-
same,T line color intensity,"[2]; 0.4 µg/mL, Na+ 1 mol/L",++-
same,T line color intensity,"[2]; 0.4 µg/mL, Na+ 2 mol/L",+--
same,T line color intensity,"[2]; 0.4 µg/mL, pH 6",++-
same,T line color intensity,"[2]; 0.4 µg/mL, pH 7",+--
same,T line color intensity,"[2]; 0.4 µg/mL, pH 7.4",++-
same,T line color intensity,"[2]; 0.4 µg/mL, pH 8",+--
same,T line color intensity,"[2]; 0.4 µg/mL, pH 9",---
same,T line color intensity,"[2]; 0.6 µg/mL, Acetone 10 v%",+--
same,T line color intensity,"[2]; 0.6 µg/mL, Acetone 20 v%",+--
same,T line color intensity,"[2]; 0.6 µg/mL, Acetone 30 v%",---
same,T line color intensity,"[2]; 0.6 µg/mL, Acetone 40 v%",---
same,T line color intensity,"[2]; 0.6 µg/mL, Acetonitrile 10 v%",+--
same,T line color intensity,"[2]; 0.6 µg/mL, Acetonitrile 20 v%",---
same,T line color intensity,"[2]; 0.6 µg/mL, Acetonitrile 30 v%",---
same,T line color intensity,"[2]; 0.6 µg/mL, Acetonitrile 40 v%",---
same,T line color intensity,"[2]; 0.6 µg/mL, Dimethyl sulfoxide 10 v%",---
same,T line color intensity,"[2]; 0.6 µg/mL, Dimethyl sulfoxide 20 v%",---
same,T line color intensity,"[2]; 0.6 µg/mL, Dimethyl sulfoxide 30 v%",---
same,T line color intensity,"[2]; 0.6 µg/mL, Dimethyl sulfoxide 40 v%",---
same,T line color intensity,"[2]; 0.6 µg/mL, Methanol 10 v%",---
same,T line color intensity,"[2]; 0.6 µg/mL, Methanol 20 v%",+--
same,T line color intensity,"[2]; 0.6 µg/mL, Methanol 30 v%",+--
same,T line color intensity,"[2]; 0.6 µg/mL, Methanol 40 v%",---
same,T line color intensity,"[2]; 0.6 µg/mL, Na+ 0.07 mol/L",---
same,T line color intensity,"[2]; 0.6 µg/mL, Na+ 0.14 mol/L",+--
same,T line color intensity,"[2]; 0.6 µg/mL, Na+ 0.25 mol/L",+--
same,T line color intensity,"[2]; 0.6 µg/mL, Na+ 0.5 mol/L",+--
same,T line color intensity,"[2]; 0.6 µg/mL, Na+ 1 mol/L",+--
same,T line color intensity,"[2]; 0.6 µg/mL, Na+ 2 mol/L",---
same,T line color intensity,"[2]; 0.6 µg/mL, pH 6",---
same,T line color intensity,"[2]; 0.6 µg/mL, pH 7",---
same,T line color intensity,"[2]; 0.6 µg/mL, pH 7.4",---
same,T line color intensity,"[2]; 0.6 µg/mL, pH 8",---
same,T line color intensity,"[2]; 0.6 µg/mL, pH 9",---
same,cut-off value,[2]; optimal buffer,0.6 µg/mL
same,visual limit of detection (vLOD),[2]; optimal buffer,0.3 µg/mL
